“Also recorded” adds a separate entry of the source.
What was measured:
HSV-2 [1] = details: Lewandowski et al. 1989; cited from earlier work
Xanthine oxidase = test: Conversion of IPdR to IUdR by xanthine oxidase; assay type: biochemical; details: isolated from cow milk
Text: (§1) In order to determine which enzyme is responsible for the catalysts of this IPdR oxidation, a series of known oxido-reductases which have similar capability to oxidize a carbon atom with an adjacent amino group into a carbonyl functionality were explored for their ability to catalyze IPdR oxidation. […] A mixed function oxidase system prepared from the microsome of rat liver a broad spectrum of substrates and is NADPH dependent. […] Alcohol dehydrogenase (which can be obtained from Sigma) and alcohol oxidase (which can be obtained from Sigma) both reside in the soluble fraction of liver cell extracts, but the conversion of IPdR to […] was not detected with purified preparation of either enzyme under the same conditions that they converted their natural substrates effectively. […]

thymidine phosphorylase = details: cited from earlier work
Alcohol dehydrogenase = test: IPdR conversion by alcohol dehydrogenase; assay type: biochemical; details: purified preparation
Text: as §1

aldehyde oxidase [2] = test: Substrate specificity of the conversion of RPdR to RUdR; assay type: in vitro ADME, rat; details: substrate 180 μM; 2 to 4 separate experiments; in nmol/mg/min
Protocol: (§2) Rat hepatic tissue was washed with ice-cold 1.15% KCl and blotted dry. The tissue was then homogenized with a tissue homogenizer, in a volume of 1.15% KCl that was 3 times the tissue weight, to form a 25% (w/v) homogenate. The homogenate was then centrifuged at 10,000 g for 10 minutes at 4° C. The resulting supernatant was filtered through Miracloth (similar to cheese cloth) then dialyzed overnight against 50 mM Tris-HCl buffer pH 7.5 and stored at -80° C. before use. Rat hepatocytes were obtained by a perfusion technique then the cells were extracted with 10 mM phosphate buffer, pH 7.5, containing 1M KCl and dialyzed for 4 hours against 50 mM Tris-HCl buffer pH 7.5.
(§3) For the standard assay condition, the reaction mixture contained 50 mM Tris-HCl, pH 7.5, 1 mM EDTA, 180 μM of IPdR (or its analogs) and approximately 0.01 mg protein of 10,000 g supernatant of tissue homogenate in a final volume of 500 μl and the incubation was at 37° C. for 10 minutes unless specified otherwise. 300 μl of reaction mixture was removed at the end of incubation and mixed with 630 μl acetonitrile then agitated. The precipitated protein were removed by centrifugation and the supernatant was lyophilized to dryness. The samples were reconstituted to the original aliquot volume with the HPLC mobile phase buffer and analyzed on a Alltech RP-18 column. IPdR, IUdR and IU were detected at a UV absorption wavelength of 230 nm, and IPdR was also detected at a UV absorption wavelength of 335 nm. The mobile phase was 10% acetonitrile/90%mM ammonium acetate, pH 6.8 and the flow rate was 1 ml/minute. Standard curves of IPdR and IUdR were established from the integration value of known concentrations.
(§4) Several 2-pyrimidinone deoxyribose analogs were examined for the conversion to their deoxyuridine counterparts. […] Nevertheless the relative Vmax for IPdR in the reaction at pH 7.5 and pH 9.5 is the same. […] The synthetic substrates for aldehyde oxidase appear to be better than its natural substrates, N^1 -methylnicotinamide and acetaldehyde, as judged by the potency of inhibition of N^1 -methylnicotinamide and acetaldehyde to the IPdR oxidation reaction (Table IV). The rate of reactivity of the liver enzyme with different IPdR analogs follows the order EPdR, IP, IPdR, 5-bromo-2-pyrimidinone deoxyribose (BPdR) and 5-methyl-2-pyrimidinone deoxyribose (MPdR) or 5-ethyl-2-pyrimidinone deoxyribose (EtPdR) (Table V). Electronegative substituents in the 5-position seemed to increase the substrate activity in this oxidation reaction.
Substrate specificity of the conversion of […]

HSV-2 [3] = details: Lewandowski et al. 1989; cited from earlier work; remark: listed apart in the source
Sarcosine oxidase = test: IPdR oxidation by sarcosine oxidase; assay type: biochemical
Text: as §1

[4] = Michaelis constant / Vmax of 2-pyrimidinone deoxyribose analogs with the liver enzyme; assay type: biochemical, rat; details: rat, liver aldehyde oxidase
Protocol: as §2, §3, §4

aldehyde oxidase [5] = test: as above; assay type: biochemical, rat; details: pH 7.5 versus pH 9.5
Protocol: as §2, §3, §4

HSV-1 = details: Lewandowski et al. 1989; cited from earlier work
mice = details: oral, at the dosage employed; cited from earlier work
liver and tumor tissue = test: Thymidine replacement in liver and tumor tissue of athymic nude mice having metastatic tumors; assay type: in vivo; details: 100, 250, 500 mg/kg/d (FIG. 7)
Protocol: Mice were administered daily dosages of 0, 100, 250 and 500 mg/kg/d to determine thymidine replacement in liver and tumor tissue. The results presented in FIG. 7 are presented as mean percent thymidine replacement ± one standard error of the mean. n≥3 (control tumors n=2).

alcohol oxidase = test: IPdR conversion by alcohol oxidase; assay type: biochemical; details: purified preparation
Text: as §1

[6] = tested on: mixed function oxidase system; test: IPdR oxidation by mixed function oxidase system from rat liver microsomes; assay type: in vitro ADME; details: with or without NADPH
Text: as §1

O=c1ncc(I)cn1[C@H]1C[C@H](O)[C@@H](CO)O1 [IPdR, 1-(2-deoxy-β-D-ribofuranosyl)-5-(iodo)-2-pyrimidinone]
activity against HSV-2 in mice (HSV-2 [1]): potent activity
conversion of IPdR to IUdR by xanthine oxidase (Xanthine oxidase): failed to convert IPdR to IUdR
substrate for thymidine phosphorylase (thymidine phosphorylase): not substrates for thymidine phosphorylase
conversion of IPdR by alcohol dehydrogenase (Alcohol dehydrogenase): not detected
Conversion of RPdR to RUdR (aldehyde oxidase [2]): 11 ± 2
activity against HSV-2 in cell culture (HSV-2 [3]): potent activity
IPdR oxidase activity of sarcosine oxidase (Sarcosine oxidase): no IPdR oxidase activity
Km ([4]; pH 7.5): 150 µM
Km ([4]; pH 9.5): 87 µM
relative Vmax (aldehyde oxidase [5]): the same
activity against HSV-1 in cell culture (HSV-1): potent activity
toxicity to mice (mice): not toxic
percent thymidine replacement in tumor (liver and tumor tissue): increasing tumor incorporation; also recorded: increasing percent replacement
percent incorporation in liver (liver and tumor tissue; normal liver): negligible; also recorded: very small percent incorporation
conversion of IPdR by alcohol oxidase (alcohol oxidase): not detected
IPdR oxidase activity of rat liver microsomal fraction [6]: no IPdR oxidase activity
